Six molecules from patent publication US20260166128A1, “HUMAN AMYLIN ANALOG, AND DERIVATIVE THEREOF AND USE THEREOF” (priority 2022, published 2026) can be followed below.

Numbered stars: 1 amine (or outer) side, 2 acyl side, 3 side chain; on linkers, the order of the positions; unused ones are H or OH. Bridge positions count the residues as written; N and C are the ends. Square brackets hold non-standard residues; d marks the D form. Side chains are listed from the residue outwards. Peptide text beside a SMILES is read from it. * marks the point of attachment. C20 diacid = O=C(O)CCCCCCCCCCCCCCCCCCC(=O)*; C18 diacid = O=C(O)CCCCCCCCCCCCCCCCC(=O)*; γGlu = O=C(O)[C@H](CCC(=O)[*:2])N[*:1]; βAsp = O=C(O)[C@H](CC(=O)[*:2])N[*:1]; Hyp = O=C(O)[C@@H]1C[C@@H](O)CN1; AEEA = NCCOCCOCC(=O)O

For this test, the target named is T1, human amylin receptor (Homo sapiens, UniProt O60896+P30988).
T1 construct: host or cells: CHO-K1/Ga15/AMY3 cells, further stably transfected with a CRE-luciferase plasmid
T1 sequence (P30988 25-474): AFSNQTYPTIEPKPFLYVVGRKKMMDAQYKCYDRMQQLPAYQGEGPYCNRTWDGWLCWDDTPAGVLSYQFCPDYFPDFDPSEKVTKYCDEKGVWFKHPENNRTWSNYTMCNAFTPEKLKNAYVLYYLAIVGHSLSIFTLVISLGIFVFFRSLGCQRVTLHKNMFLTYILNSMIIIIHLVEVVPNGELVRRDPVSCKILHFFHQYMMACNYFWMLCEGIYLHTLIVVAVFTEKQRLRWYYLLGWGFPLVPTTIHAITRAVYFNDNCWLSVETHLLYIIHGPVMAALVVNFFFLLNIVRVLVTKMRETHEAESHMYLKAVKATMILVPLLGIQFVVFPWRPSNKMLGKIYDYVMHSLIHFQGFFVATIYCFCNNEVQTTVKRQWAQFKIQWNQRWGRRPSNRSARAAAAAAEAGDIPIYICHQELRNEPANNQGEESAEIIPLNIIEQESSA
T1 sequence (O60896 24-148 partner): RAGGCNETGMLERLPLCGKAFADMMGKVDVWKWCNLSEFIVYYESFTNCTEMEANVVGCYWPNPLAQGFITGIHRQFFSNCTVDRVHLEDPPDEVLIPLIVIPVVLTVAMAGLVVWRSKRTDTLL
The test is described as follows: Luciferase assay of amylin derivatives in amylin receptor/CRE-luc CHO cell line. In kind it is cell-based. The following applies: CHO-K1/Ga15/AMY3 CRE-luc cells, 24 hours incubation, F12 medium containing 10% FBS; read-out: EC50.
Description: The experiment was intended to detect the activity or efficacy of the amylin derivatives on a human amylin receptor in vitro by luciferase assay.
50 μL of growth medium (F12 medium containing 10% FBS) was added into each well of a white 96-well plate, and the stably transfected amylin/CRE-lue CHO cells were inoculated into the white 96-well plate at a density of about 20,000 cells/well for activity determination.
Broadly, the EC50 is the concentration that produces a half-maximal response. Turning to `CC[C@H](C)[C@H](NC(=O)[C@@H]1CCCN1C(=O)[C@H](CCCCN)NC(=O)[C@H](CC(C)C)NC(=O)[C@H](CC(N)=O)NC(=O)[C@H](CC(N)=O)NC(=O)[C@H](CO)NC(=O)[C@H](CO)NC(=O)[C@H](Cc1c[nH]cn1)NC(=O)[C@H](CCCNC(=N)N)NC(=O)[C@H](CC(C)C)NC(=O)[C@H](Cc1ccccc1)NC(=O)[C@H](CC(=O)O)NC(=O)[C@H](C)NC(=O)[C@H](CC(C)C)NC(=O)[C@H](CCCNC(=N)N)NC(=O)[C@H](CCC(N)=O)NC(=O)[C@@H](NC(=O)[C@H](C)NC(=O)[C@@H]1CSSC[C@H](NC(=O)[C@@H](N)CCCCNC(=O)CC[C@H](NC(=O)CCCCCCCCCCCCCCCCCCC(=O)O)C(=O)O)C(=O)N[C@@H](CC(N)=O)C(=O)N[C@@H]([C@@H](C)O)C(=O)N[C@@H](C)C(=O)N[C@@H]([C@@H](C)O)C(=O)N1)[C@@H](C)O)C(=O)N[C@@H](CC(C)C)C(=O)N1CCC[C@H]1C(=O)N1CCC[C@H]1C(=O)N[C@H](C(=O)N[C@@H](CC(N)=O)C(=O)N[C@H](C(=O)NCC(=O)N[C@@H](CO)C(=O)N[C@@H](CC(N)=O)C(=O)N[C@H](C(=O)N1C[C@H](O)C[C@H]1C(N)=O)[C@@H](C)O)C(C)C)[C@@H](C)O` [PD072] (H-K([γGlu-C20 diacid])CNTATCATQRLADFLRHSSNNLKPILPPTNVGSNT[Hyp]-NH2; disulfide 2-7), the EC50 amounted to 0.027 nM. To `CC[C@H](C)[C@H](NC(=O)[C@@H]1CCCN1C(=O)CNC(=O)[C@H](Cc1ccccc1)NC(=O)[C@H](CC(N)=O)NC(=O)[C@H](CC(N)=O)NC(=O)[C@H](CO)NC(=O)[C@H](CO)NC(=O)[C@H](Cc1c[nH]cn1)NC(=O)[C@@H](NC(=O)[C@H](CC(C)C)NC(=O)[C@H](Cc1ccccc1)NC(=O)[C@H](CC(N)=O)NC(=O)[C@H](C)NC(=O)[C@H](CC(C)C)NC(=O)[C@H](CCCNC(=N)N)NC(=O)[C@H](CCC(N)=O)NC(=O)[C@@H](NC(=O)[C@H](C)NC(=O)[C@@H]1CSSC[C@H](NC(=O)[C@H](CCCCN)NC(=O)CC[C@H](NC(=O)CCCCCCCCCCCCCCCCCCC(=O)O)C(=O)O)C(=O)N[C@@H](CC(N)=O)C(=O)N[C@@H]([C@@H](C)O)C(=O)N[C@@H](C)C(=O)N[C@@H]([C@@H](C)O)C(=O)N1)[C@@H](C)O)C(C)C)C(=O)N[C@@H](CC(C)C)C(=O)N1CCC[C@H]1C(=O)N1CCC[C@H]1C(=O)N[C@H](C(=O)N[C@@H](CC(N)=O)C(=O)N[C@H](C(=O)NCC(=O)N[C@@H](CO)C(=O)N[C@@H](CC(N)=O)C(=O)N[C@H](C(=O)N[C@@H](Cc1ccc(O)cc1)C(N)=O)[C@@H](C)O)C(C)C)[C@@H](C)O` [PD156] ({C20 diacid-γGlu}-KCNTATCATQRLANFLVHSSNNFGPILPPTNVGSNTY-NH2; disulfide 2-7 (inferred)) belongs 0.029 nM. The result for `CC[C@H](C)[C@H](NC(=O)[C@@H]1CCCN1C(=O)[C@H](CCCCN)NC(=O)[C@H](CC(C)C)NC(=O)[C@H](CC(N)=O)NC(=O)[C@H](CC(N)=O)NC(=O)[C@H](CO)NC(=O)[C@H](CO)NC(=O)[C@H](Cc1c[nH]cn1)NC(=O)[C@H](CCCNC(=N)N)NC(=O)[C@H](CC(C)C)NC(=O)[C@H](Cc1ccccc1)NC(=O)[C@H](CC(=O)O)NC(=O)[C@H](C)NC(=O)[C@H](CC(C)C)NC(=O)[C@H](CCCNC(=N)N)NC(=O)[C@H](CCC(N)=O)NC(=O)[C@@H](NC(=O)[C@H](C)NC(=O)[C@@H]1CSSC[C@H](NC(=O)[C@H](CCCCN)NC(=O)COCCOCCNC(=O)COCCOCCNC(=O)C[C@H](NC(=O)CCCCCCCCCCCCCCCCCCC(=O)O)C(=O)O)C(=O)N[C@@H](CC(N)=O)C(=O)N[C@@H]([C@@H](C)O)C(=O)N[C@@H](C)C(=O)N[C@@H]([C@@H](C)O)C(=O)N1)[C@@H](C)O)C(=O)N[C@@H](CC(C)C)C(=O)N1CCC[C@H]1C(=O)N1CCC[C@H]1C(=O)N[C@H](C(=O)N[C@@H](CC(N)=O)C(=O)N[C@H](C(=O)NCC(=O)N[C@@H](CO)C(=O)N[C@@H](CC(N)=O)C(=O)N[C@H](C(=O)N1C[C@H](O)C[C@H]1C(N)=O)[C@@H](C)O)C(C)C)[C@@H](C)O` [PD183] ({C20 diacid-βAsp-AEEA-AEEA}-KCNTATCATQRLADFLRHSSNNLKPILPPTNVGSNT[Hyp]-NH2; disulfide 2-7) reads 0.04 nM. To `CC[C@H](C)[C@H](NC(=O)[C@@H]1CCCN1C(=O)[C@H](CCCCNC(=O)COCCOCCNC(=O)COCCOCCNC(=O)CC[C@H](NC(=O)CCCCCCCCCCCCCCCCC(=O)O)C(=O)O)NC(=O)[C@H](CC(C)C)NC(=O)[C@H](CC(N)=O)NC(=O)[C@H](CC(N)=O)NC(=O)[C@H](CO)NC(=O)[C@H](CO)NC(=O)[C@H](Cc1c[nH]cn1)NC(=O)[C@H](CCCNC(=N)N)NC(=O)[C@H](CC(C)C)NC(=O)[C@H](Cc1ccccc1)NC(=O)[C@H](CC(=O)O)NC(=O)[C@H](C)NC(=O)[C@H](CC(C)C)NC(=O)[C@H](CCCNC(=N)N)NC(=O)[C@H](CCC(N)=O)NC(=O)[C@@H](NC(=O)[C@H](C)NC(=O)[C@@H]1CSSC[C@H](NC(=O)[C@@H](N)CCCNC(=N)N)C(=O)N[C@@H](CC(N)=O)C(=O)N[C@@H]([C@@H](C)O)C(=O)N[C@@H](C)C(=O)N[C@@H]([C@@H](C)O)C(=O)N1)[C@@H](C)O)C(=O)N[C@@H](CC(C)C)C(=O)N1CCC[C@H]1C(=O)N1CCC[C@H]1C(=O)N[C@H](C(=O)N[C@@H](CC(N)=O)C(=O)N[C@H](C(=O)NCC(=O)N[C@@H](CO)C(=O)N[C@@H](CC(N)=O)C(=O)N[C@H](C(=O)N1C[C@H](O)C[C@H]1C(N)=O)[C@@H](C)O)C(C)C)[C@@H](C)O` [PD109] (H-RCNTATCATQRLADFLRHSSNNLK([AEEA-AEEA-γGlu-C18 diacid])PILPPTNVGSNT[Hyp]-NH2; disulfide 2-7) belongs 0.01 nM. With `CC[C@H](C)[C@H](NC(=O)[C@@H]1CCCN1C(=O)CNC(=O)[C@H](CC(C)C)NC(=O)[C@H](CC(N)=O)NC(=O)[C@H](CC(N)=O)NC(=O)[C@H](CO)NC(=O)[C@H](CO)NC(=O)[C@H](Cc1c[nH]cn1)NC(=O)[C@H](CCCNC(=N)N)NC(=O)[C@H](CC(C)C)NC(=O)[C@H](Cc1ccccc1)NC(=O)[C@H](CC(=O)O)NC(=O)[C@H](C)NC(=O)[C@H](CC(C)C)NC(=O)[C@H](CCCNC(=N)N)NC(=O)[C@H](CCC(N)=O)NC(=O)[C@@H](NC(=O)[C@H](C)NC(=O)[C@@H]1CSSC[C@H](NC(=O)[C@H](CCCCN)NC(=O)CC[C@H](NC(=O)CCCCCCCCCCCCCCCCC(=O)O)C(=O)O)C(=O)N[C@@H](CC(N)=O)C(=O)N[C@@H]([C@@H](C)O)C(=O)N[C@@H](C)C(=O)N[C@@H]([C@@H](C)O)C(=O)N1)[C@@H](C)O)C(=O)N[C@@H](CC(C)C)C(=O)N1CCC[C@H]1C(=O)N1CCC[C@H]1C(=O)N[C@H](C(=O)N[C@@H](CC(N)=O)C(=O)N[C@H](C(=O)NCC(=O)N[C@@H](CO)C(=O)N[C@@H](CC(N)=O)C(=O)N[C@H](C(=O)N1C[C@H](O)C[C@H]1C(N)=O)[C@@H](C)O)C(C)C)[C@@H](C)O` [PD124] ({C18 diacid-γGlu}-KCNTATCATQRLADFLRHSSNNLGPILPPTNVGSNT[Hyp]-NH2; disulfide 2-7), the EC50 was 0.008 nM. As for `CC[C@H](C)[C@H](NC(=O)[C@@H]1CCCN1C(=O)CNC(=O)[C@H](CCCCNC(=O)COCCOCCNC(=O)CC[C@H](NC(=O)CCCCCCCCCCCCCCCCCCC(=O)O)C(=O)O)NC(=O)[C@H](CC(N)=O)NC(=O)[C@H](CC(N)=O)NC(=O)[C@H](CO)NC(=O)[C@H](CO)NC(=O)[C@H](Cc1c[nH]cn1)NC(=O)[C@H](CCCNC(=N)N)NC(=O)[C@H](CC(C)C)NC(=O)[C@H](Cc1ccccc1)NC(=O)[C@H](CC(=O)O)NC(=O)[C@H](C)NC(=O)[C@H](CC(C)C)NC(=O)[C@H](CCCNC(=N)N)NC(=O)[C@H](CCC(N)=O)NC(=O)[C@@H](NC(=O)[C@H](C)NC(=O)[C@@H]1CSSC[C@H](NC(=O)[C@@H](N)CCCNC(=N)N)C(=O)N[C@@H](CC(N)=O)C(=O)N[C@@H]([C@@H](C)O)C(=O)N[C@@H](C)C(=O)N[C@@H]([C@@H](C)O)C(=O)N1)[C@@H](C)O)C(=O)N[C@@H](CC(C)C)C(=O)N1CCC[C@H]1C(=O)N1CCC[C@H]1C(=O)N[C@H](C(=O)N[C@@H](CC(N)=O)C(=O)N[C@H](C(=O)NCC(=O)N[C@@H](CO)C(=O)N[C@@H](CC(N)=O)C(=O)N[C@H](C(=O)N1C[C@H](O)C[C@H]1C(N)=O)[C@@H](C)O)C(C)C)[C@@H](C)O` [PD110] (H-RCNTATCATQRLADFLRHSSNNK([AEEA-γGlu-C20 diacid])GPILPPTNVGSNT[Hyp]-NH2; disulfide 2-7), the EC50 is 0.039 nM.
